“And” between values parts separate entries of the source, which are not always exact repeats. Equal values may be shown once. Read-outs that look alike come from different tables or passages of the source.
Key:
[1] = Metabolic stability in human liver microsomes; type: in vitro ADME; conditions: human liver microsomes 0.5 mg/mL, NADPH, 37° C.; for CLint scaled at 1 µM: pH 7.4, read-out: HLM_CLint
Method in brief: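 Compound at 1.5 μM in liver microsome dosing solution (pH 7.4 potassium phosphate, 1.0 mM EDTA) was incubated at 37 °C with NADPH and sampled at 0, 5, 15, 30, 45 min in duplicate, quenched with ACN. LC-MS/MS remaining compound fit to first-order decay; T1/2 = 0.693/K.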

BRD4 (BD2) = target: T1, BRD4 (BD2) (Homo sapiens, UniProt O60885); assay: BRD4 (BD2) bromodomain binding, HTRF; conditions: 2 h incubation at r.t.
T1 construct: Each member comprises two tandem bromodomains (BD1 and BD2) for recognizing the acetylated lysine residues

[2] = Cassette pharmacokinetic study, intravenous or oral administration; type: in vivo, female Balb/c nude mice; design: Cmax: unit not given here; conditions: for F: PO 2 mg/kg vs IV 0.5 mg/kg; for AUC(0-inf) / AUC(0-t) / MRT inf / clearance / half-life / Vd / Tmax: female, Balb/c nude, mouse, whole blood; for AUC(0-inf) / AUC(0-t) / MRT inf / clearance / half-life / Vd / Tmax / Cmax: N = 3, cassette; for half-life: read-out: Terminal t1/2 (converted); for Vd: read-out: Vss
Procedure: Determinations of the pharmacokinetic parameters of ABBV-075 (standard control), 4009, 4018, 4026 and 4031 in femal Balb/c nude mice after intravenous or oral administration.
Detailed Experimental Steps:
6 female Balb/c nude mice weighing 18-20 g were divided into two groups (3/group), after fixation, the intravenous group: 0.5 mg/kg (5 mL/kg) injected by caudal vein (N=3); the oral group: 2 mg/kg (10 mL/kg) by intragastic administration (N=3). Approximately 20 μL of blood was drawn behind the eyeball at the sampling point and placed in EDTA-2K tube. The sample was immediately diluted with 40 μL of double distilled water and vortexed until well mixed. Blood samples were stored at approximately −70° C. and submitted to the BA group for analysis (LC/MS). 30 μL of blood sample was added with 200 μL of H2O and 30 μL of IS dexamethasone, 200 ng/mL), layered by LLE, and 1 mL of MTBW was added as an organic extraction solvent. The mixture was vortexed for 10 min and centrifuged at 10,000 rpm for 5 min. 850 μL of the supernatant was evaporated under nitrogen until desiccated. The desiccated extract was re-mixed with 150 μL of 50% methanol, vortexed for 2 min, and then analyzed by injecting 5 μL of the supernatant into LC-MS/MS.
2. Intravenous/oral administration formula: 5% DMSO, 95% (10% HP-3-CD in water)
3. PK calculation parameter used non-compartment model, WinNonlin 6.4 software calculation

[3] = test system: MV-4-11 subcutaneous xenograft tumor; assay: Anti-tumor efficacy in vivo, MV-4-11 subcutaneous xenograft model; design: species or system BALB/c nude mice; conditions: for anti-tumor effect on the MV-4-11 cell xenograft tumor mouse model: ABBV-075 3 mg/kg, GSK762 15 mg/kg, 4009 10 mg/kg; for anti-tumor effect on the MV-4-11 cell xenograft tumor mouse model / T/C % / Average tumor weight, 15th day of treatement / Average tumor volume, Treatement starts 1st day / Tumor volume TGI (%) 4th day / Tumor volume TGI (%) 6th day / Tumor volume TGI (%) 8th day / Tumor volume TGI (%) 11th day / Tumor volume TGI (%) 13th day / Tumor volume TGI (%) 15th day / Average tumor volume, Treatement ends 15th day: intragastric QD*14; for T/C %: TRTV/CRTV; for T/C % / P, tumor volume difference between the control group and the administrated group / Average tumor weight, 15th day of treatement / Average tumor volume, Treatement starts 1st day / Tumor volume TGI (%) 4th day / Tumor volume TGI (%) 6th day / Tumor volume TGI (%) 8th day / Tumor volume TGI (%) 11th day / Tumor volume TGI (%) 13th day / Tumor volume TGI (%) 15th day / Average tumor volume, Treatement ends 15th day: ABBV-075 3, GSK762 15, 4009 10 mg/kg; for T/C % / Tumor volume TGI (%) 15th day / Average tumor volume, Treatement ends 15th day: 15th day; for P, tumor volume difference between the control group and the administrated group: Two-way Anova Bonferroni post-test; for Average tumor volume, Treatement ends 15th day: 10 mg/kg
Procedure: According to the growth of the cells, the treatment was passaged twice a week. When the cells are in the exponential growth phase, the cells are collected, counted, and inoculated.
Experimental protocol: 0.2 mL of cell suspension containing about 5×10^MV-4-11 cells (cell suspended in IMDM medium and added with 50% Matrigel) was inoculated subcutaneously into the right back of each mouse. Group administration was initiated when the average tumor volume reached approximately 136.94 mm^3 (day 15 post inoculation). Grouping method: Animals were weighed before dosing and tumor volume was measured. Grouping designed based on tumor volume.
The experimental indicator is to investigate whether tumor growth can be inhibited, delayed or cured. Tumor diameters were measured with vernier calipers three times a week. The formula for calculating tumor volume is: V=0.5×a×b^2, a and b represent the long and short diameters of the tumor, respectively. The antitumor effect of the compound was evaluated by T/C (%). T/C %=TRTV/CRTV×100% (TRTV: treatment group RTV; CRTV: negative comparative group RTV). The relative tumor volume RTV is calculated as RTV=Vt/V1. Where V1 is the measured tumor volume at the time of group administration (i.e., Day 1), and Vt is the tumor volume at each measurement.
The tumor volume and tumor size were analysed by statistical software. GraphPad Prism software was used for analyzation, p<0.05 is considered to have significant difference, p<0.01 is considered to have extremely significant difference.
Two-way Anova Bonferroni post-test is used to compare the tumor volume difference between the control group and the treatment group.

MV-4-11 cells = assay: Inhibitory effect on MV-4-11 cells (CellTiter-Glo); type: cell-based; conditions: Homo sapiens, MV4-11; 72 hours, CellTiter-Glo; read-out: MV-4-11
[4] = Body weight of MV-4-11 tumor-bearing mice during treatment; type: in vivo; conditions: for Average RCBW, Treatment end Day 15: relative body weight change vs Day 1; for Average RCBW, Treatment end Day 15 / Average body weight, Treatment end Day 15 / Average body weight, Treatment start Day 1: intragastric QD*14, ABBV-075 3, GSK762 15, 4009 10 mg/kg; for Average body weight, Treatment end Day 15 / Average body weight, Treatment start Day 1: x ± SEM
Procedure: The preparation and any revision of this experimental protocol are carried out in accordance with the evaluation criteria of the “Institute for Animal Care and Use (IACUC)” of Shanghai Chempartner Chemical Research Co., Ltd. The use and welfare of laboratory animals are carried out in accordance with the provisions of the Association for Assessment and Accreditation of Laboratory Animal Care (AAALAC). Animals are monitored daily for health and death. Routine examinations include observations of the effects of the test substance and the drug on the daily behavior of the animal such as behavioral activities, intake of water and feeds, weight change (three weights measured weekly), appearance signs or other anormal circumstance. The number of animal deaths and side effects in the group were recorded based on the number of animals in each group.

CCS(=O)(=O)Nc1ccc(Oc2ccc(F)cc2F)c(-c2cn(C)c(=O)c3[nH]ccc23)c1 [ABBV-075]
HLM_T1/2 [1]: 1465.60 min | CLint scaled at 1 µM [1]: 0.0714 L/h/kg | IC50 (BRD4 (BD2)): 1 nM | F [2]: 62.5% | AUC(0-inf) ([2]; IV 0.5 mg/kg): 0.51 µg·h/mL | AUC(0-t) ([2]; IV 0.5 mg/kg): 0.457 µg·h/mL | MRT inf ([2]; IV 0.5 mg/kg): 3.1 h | clearance ([2]; IV 0.5 mg/kg): 0.986 L/h/kg | half-life ([2]; IV 0.5 mg/kg): 2.8 h | Vd ([2]; IV 0.5 mg/kg): 3.06 L/kg | AUC(0-inf) ([2]; PO 2 mg/kg): 1.69 µg·h/mL | AUC(0-t) ([2]; PO 2 mg/kg): 1.14 µg·h/mL | Tmax ([2]; PO 2 mg/kg): 1 h | half-life ([2]; PO 2 mg/kg): 4.56 h | anti-tumor effect on the MV-4-11 cell xenograft tumor mouse model [3]: significant anti-tumor effect | T/C % [3]: 34.24% | P, tumor volume difference between the control group and the administrated group ([3]; day 1 after administration): P > 0.05 | P, tumor volume difference between the control group and the administrated group ([3]; day 4 after administration): P > 0.05 | P, tumor volume difference between the control group and the administrated group ([3]; day 6 after administration): P > 0.05 | P, tumor volume difference between the control group and the administrated group ([3]; day 8 after administration): P > 0.05 | P, tumor volume difference between the control group and the administrated group ([3]; day 11 after administration): P < 0.01 (***) | P, tumor volume difference between the control group and the administrated group ([3]; day 13 after administration): P < 0.01 (***) | P, tumor volume difference between the control group and the administrated group ([3]; day 15 after administration): P < 0.01 (***) | Average tumor weight, 15th day of treatement [3]: 0.314 ± 0.05 g | Average tumor volume, Treatement starts 1st day [3]: 136.45 ± 14.05 mm^3 | Tumor volume TGI (%) 4th day [3]: 97.12% | Tumor volume TGI (%) 6th day [3]: 69.45% | Tumor volume TGI (%) 8th day [3]: 73.8% | Tumor volume TGI (%) 11th day [3]: 72.41% | Tumor volume TGI (%) 13th day [3]: 75.81% | Tumor volume TGI (%) 15th day [3]: 75.56% | Average tumor volume, Treatement ends 15th day [3]: 346.72 mm^3 and 346.72 ± 68.96 mm^3 | IC50 (MV-4-11 cells): 7 nM | Average RCBW, Treatment end Day 15 [4]: 2.72% | Average body weight, Treatment end Day 15 [4]: 21.95 ± 0.36 g | Average body weight, Treatment start Day 1 [4]: 21.36 ± 0.21 g

CCS(=O)(=O)Cc1ccc2c(c1)-c1cn(C)c(=O)cc1[C@H](C)N=C2c1ccc(F)cc1 [Compound 4026, (S)-10-((ethylsulfone)methyl)-7-(4-fluorophenyl)-2,5-dimethyl-2,5-dihydro-3H-benzo[c]pyrido[3,4-e]azepin-3-ketone]
HLM_T1/2 [1]: ∞ | IC50 (BRD4 (BD2)): 1 nM | F [2]: 89.5% | Cmax ([2]; PO 2 mg/kg): 1082 | AUC(0-inf) ([2]; IV 0.5 mg/kg): 1.14 µg·h/mL | AUC(0-t) ([2]; IV 0.5 mg/kg): 1.1 µg·h/mL | MRT inf ([2]; IV 0.5 mg/kg): 3.21 h | clearance ([2]; IV 0.5 mg/kg): 0.45 L/h/kg | half-life ([2]; IV 0.5 mg/kg): 2.85 h | Vd ([2]; IV 0.5 mg/kg): 1.43 L/kg | AUC(0-inf) ([2]; PO 2 mg/kg): 4.05 µg·h/mL | AUC(0-t) ([2]; PO 2 mg/kg): 3.74 µg·h/mL | Tmax ([2]; PO 2 mg/kg): 0.5 h | half-life ([2]; PO 2 mg/kg): 4.35 h | IC50 (MV-4-11 cells): 4 nM

CCS(=O)(=O)Cc1ccc2c(c1)-c1cn(C)c(=O)cc1CN=C2c1ccc(F)cc1 [Compound 4009, 7-(4-fluorophenyl)-2-methyl-10-(ethylsulfonemethyl)-2H-benzo[c]pyrido[3,4-e]azepin-3(5H)-ketone]
HLM_T1/2 [1]: 471.41 min | CLint scaled at 1 µM [1]: 0.221 L/h/kg | IC50 (BRD4 (BD2)): 5 nM | F [2]: 99.7% | Cmax ([2]; PO 2 mg/kg): 742 | AUC(0-inf) ([2]; IV 0.5 mg/kg): 0.59 µg·h/mL | AUC(0-t) ([2]; IV 0.5 mg/kg): 0.575 µg·h/mL | MRT inf ([2]; IV 0.5 mg/kg): 1.61 h | clearance ([2]; IV 0.5 mg/kg): 0.855 L/h/kg | half-life ([2]; IV 0.5 mg/kg): 1.69 h | Vd ([2]; IV 0.5 mg/kg): 1.38 L/kg | AUC(0-inf) ([2]; PO 2 mg/kg): 2.35 µg·h/mL | AUC(0-t) ([2]; PO 2 mg/kg): 2.25 µg·h/mL | Tmax ([2]; PO 2 mg/kg): 0.667 h | half-life ([2]; PO 2 mg/kg): 4.21 h | anti-tumor effect on the MV-4-11 cell xenograft tumor mouse model [3]: significant anti-tumor effect | T/C % [3]: 30.13% | P, tumor volume difference between the control group and the administrated group ([3]; day 1 after administration): P > 0.05 | P, tumor volume difference between the control group and the administrated group ([3]; day 4 after administration): P > 0.05 | P, tumor volume difference between the control group and the administrated group ([3]; day 6 after administration): P > 0.05 | P, tumor volume difference between the control group and the administrated group ([3]; day 8 after administration): P > 0.05 | P, tumor volume difference between the control group and the administrated group ([3]; day 11 after administration): P < 0.001 (***) | P, tumor volume difference between the control group and the administrated group ([3]; day 13 after administration): P < 0.001 (***) | P, tumor volume difference between the control group and the administrated group ([3]; day 15 after administration): P < 0.001 (***) | Average tumor weight, 15th day of treatement [3]: 0.276 ± 0.08 g | Average tumor volume, Treatement starts 1st day [3]: 136.78 ± 14.97 mm^3 | Tumor volume TGI (%) 4th day [3]: 81.27% | Tumor volume TGI (%) 6th day [3]: 75.63% | Tumor volume TGI (%) 8th day [3]: 79.64% | Tumor volume TGI (%) 11th day [3]: 83.17% | Tumor volume TGI (%) 13th day [3]: 81.77% | Tumor volume TGI (%) 15th day [3]: 81.16% | Average tumor volume, Treatement ends 15th day [3]: 305.80 mm^3 and 305.80 ± 81.48 mm^3 | IC50 (MV-4-11 cells): 53 nM | body weight and condition of mice during the entire administration period ([4]; 4009 10 mg/kg intragastric QD*14): did not decrease in body weight | Average RCBW, Treatment end Day 15 [4]: 2.82% | Average body weight, Treatment end Day 15 [4]: 21.88 ± 0.73 g | Average body weight, Treatment start Day 1 [4]: 21.26 ± 0.38 g

Source: patent US20190284192A1, “NITROGENOUS MACROCYCLIC COMPOUND, PREPARATION METHOD THEREFOR, PHARMACEUTICAL COMPOSITION AND APPLICATION THEREOF” (LUOXIN PHARMACEUTICAL (SHANGHAI) CO., LTD., priority 2016, published 2019)
